{"source": "paper PMC5428509", "about": "“Irreversible inhibition of BTK kinase by a novel highly selective inhibitor CHMFL-BTK-11 suppresses inflammatory response in rheumatoid arthritis model” (Scientific Reports, 2017)", "test_in_all_cases": "biochemical", "design_in_all_cases": "KinomeScan competition binding panel (DiscoveRx), percent of control at 1 uM", "details_in_all_cases": "read-out: Percent Control", "key": {"[1]": {"biological_target": "FES (Homo sapiens, UniProt P07332)", "sequence (P07332 whole entry)": "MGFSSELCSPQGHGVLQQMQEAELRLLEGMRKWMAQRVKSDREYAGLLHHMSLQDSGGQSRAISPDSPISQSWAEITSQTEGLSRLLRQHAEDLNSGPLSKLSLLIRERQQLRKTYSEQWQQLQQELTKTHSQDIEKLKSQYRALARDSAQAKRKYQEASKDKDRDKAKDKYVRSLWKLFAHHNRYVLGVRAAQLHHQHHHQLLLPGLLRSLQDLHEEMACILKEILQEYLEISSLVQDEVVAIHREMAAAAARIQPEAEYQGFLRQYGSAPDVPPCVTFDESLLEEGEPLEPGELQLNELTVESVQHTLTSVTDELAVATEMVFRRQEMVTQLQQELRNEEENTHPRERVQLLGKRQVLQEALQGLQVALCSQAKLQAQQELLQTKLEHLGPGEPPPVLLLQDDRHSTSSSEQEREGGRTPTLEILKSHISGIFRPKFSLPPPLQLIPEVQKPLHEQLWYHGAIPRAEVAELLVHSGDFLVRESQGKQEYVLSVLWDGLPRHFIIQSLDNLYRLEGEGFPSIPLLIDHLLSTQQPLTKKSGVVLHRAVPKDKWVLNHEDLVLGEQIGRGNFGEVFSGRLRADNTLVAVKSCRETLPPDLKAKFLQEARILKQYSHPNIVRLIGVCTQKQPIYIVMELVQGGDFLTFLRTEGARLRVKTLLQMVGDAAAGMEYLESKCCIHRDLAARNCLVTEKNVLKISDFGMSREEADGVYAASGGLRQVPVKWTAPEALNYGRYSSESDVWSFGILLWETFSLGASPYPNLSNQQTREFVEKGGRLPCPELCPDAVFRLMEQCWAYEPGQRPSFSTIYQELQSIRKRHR", "how_it_was_run": "(§1)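 Selectivity profiled across 456 kinases/mutants by KinomeScan binding technology.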"}, "[2]": {"biological_target": "T1, PIP5K2B (Homo sapiens, UniProt P78356)", "T1 construct": "gene PIP4K2B", "how_it_was_run": "as §1"}, "[3]": {"biological_target": "AKT1 (Homo sapiens, UniProt P31749)", "how_it_was_run": "as §1"}, "[4]": {"biological_target": "PAK6 (Homo sapiens, UniProt Q9NQU5)", "how_it_was_run": "as §1"}, "[5]": {"biological_target": "MYLK4 (Homo sapiens, UniProt Q86YV6)", "how_it_was_run": "as §1"}, "[6]": {"biological_target": "DYRK1A (Homo sapiens, UniProt Q13627)", "how_it_was_run": "as §1"}, "[7]": {"biological_target": "CSNK1A1L (Homo sapiens, UniProt Q8N752)", "how_it_was_run": "as §1"}, "[8]": {"biological_target": "CSNK2A2 (Homo sapiens, UniProt P19784)", "how_it_was_run": "as §1"}, "[9]": {"biological_target": "PIK3CA(M1043I) (Homo sapiens, UniProt P42336, M1043I)", "sequence (P42336 whole entry M1043I)": "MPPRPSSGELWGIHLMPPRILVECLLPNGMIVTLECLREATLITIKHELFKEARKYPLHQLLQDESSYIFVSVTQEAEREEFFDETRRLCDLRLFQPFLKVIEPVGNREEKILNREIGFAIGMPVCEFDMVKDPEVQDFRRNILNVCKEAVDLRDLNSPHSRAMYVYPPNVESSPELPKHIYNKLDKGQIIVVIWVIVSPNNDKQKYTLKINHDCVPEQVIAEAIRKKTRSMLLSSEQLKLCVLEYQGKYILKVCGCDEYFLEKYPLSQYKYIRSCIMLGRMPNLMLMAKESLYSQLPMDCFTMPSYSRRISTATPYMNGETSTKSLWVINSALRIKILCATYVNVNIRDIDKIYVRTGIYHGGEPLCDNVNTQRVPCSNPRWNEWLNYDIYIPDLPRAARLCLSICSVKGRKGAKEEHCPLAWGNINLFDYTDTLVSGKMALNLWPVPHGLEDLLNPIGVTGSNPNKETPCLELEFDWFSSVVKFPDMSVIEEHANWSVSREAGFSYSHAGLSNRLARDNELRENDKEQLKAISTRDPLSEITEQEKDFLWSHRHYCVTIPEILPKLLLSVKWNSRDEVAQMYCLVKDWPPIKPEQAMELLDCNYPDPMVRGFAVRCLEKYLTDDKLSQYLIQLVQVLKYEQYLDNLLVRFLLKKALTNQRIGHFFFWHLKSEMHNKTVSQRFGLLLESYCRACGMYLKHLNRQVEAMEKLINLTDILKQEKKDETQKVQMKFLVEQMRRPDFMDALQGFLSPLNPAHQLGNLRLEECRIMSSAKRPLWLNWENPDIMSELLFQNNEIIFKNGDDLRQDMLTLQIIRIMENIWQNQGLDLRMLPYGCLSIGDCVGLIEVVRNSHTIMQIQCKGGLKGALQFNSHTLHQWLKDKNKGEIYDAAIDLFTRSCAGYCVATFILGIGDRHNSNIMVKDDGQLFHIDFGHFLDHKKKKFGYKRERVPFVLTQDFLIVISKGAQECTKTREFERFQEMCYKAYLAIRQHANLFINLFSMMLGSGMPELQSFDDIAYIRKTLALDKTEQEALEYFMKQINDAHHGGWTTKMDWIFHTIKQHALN", "how_it_was_run": "as §1"}, "[10]": {"biological_target": "PLK2 (Homo sapiens, UniProt Q9NYY3)", "sequence (Q9NYY3 whole entry)": "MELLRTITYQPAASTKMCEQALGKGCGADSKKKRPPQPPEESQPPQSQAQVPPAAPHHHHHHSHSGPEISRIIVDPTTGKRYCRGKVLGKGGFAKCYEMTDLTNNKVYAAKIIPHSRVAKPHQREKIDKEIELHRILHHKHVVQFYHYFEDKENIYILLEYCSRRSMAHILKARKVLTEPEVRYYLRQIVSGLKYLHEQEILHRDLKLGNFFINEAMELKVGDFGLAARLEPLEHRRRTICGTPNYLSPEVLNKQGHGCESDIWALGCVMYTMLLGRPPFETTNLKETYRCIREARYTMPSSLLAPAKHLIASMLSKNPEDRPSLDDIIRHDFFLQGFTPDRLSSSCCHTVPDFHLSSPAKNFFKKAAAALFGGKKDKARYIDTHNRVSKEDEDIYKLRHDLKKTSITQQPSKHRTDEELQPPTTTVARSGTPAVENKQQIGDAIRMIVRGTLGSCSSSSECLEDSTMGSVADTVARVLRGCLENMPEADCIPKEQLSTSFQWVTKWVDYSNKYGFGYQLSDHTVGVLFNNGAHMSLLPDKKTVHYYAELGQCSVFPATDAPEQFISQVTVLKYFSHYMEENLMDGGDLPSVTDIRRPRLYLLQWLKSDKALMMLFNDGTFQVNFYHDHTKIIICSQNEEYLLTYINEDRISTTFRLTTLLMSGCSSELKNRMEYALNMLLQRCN", "how_it_was_run": "as §1"}, "[11]": {"biological_target": "FLT3(R834Q) (Homo sapiens, UniProt P36888, R834Q)", "how_it_was_run": "as §1"}, "[12]": {"biological_target": "DMPK (Homo sapiens, UniProt Q09013)", "how_it_was_run": "as §1"}, "[13]": {"biological_target": "FER (Homo sapiens, UniProt P16591)", "how_it_was_run": "as §1"}, "[14]": {"biological_target": "ROCK1 (Homo sapiens, UniProt Q13464)", "how_it_was_run": "as §1"}, "[15]": {"biological_target": "ABL2 (Homo sapiens, UniProt P42684)", "how_it_was_run": "as §1"}, "[16]": {"biological_target": "CSNK2A1 (Homo sapiens, UniProt P68400)", "sequence (P68400 whole entry)": "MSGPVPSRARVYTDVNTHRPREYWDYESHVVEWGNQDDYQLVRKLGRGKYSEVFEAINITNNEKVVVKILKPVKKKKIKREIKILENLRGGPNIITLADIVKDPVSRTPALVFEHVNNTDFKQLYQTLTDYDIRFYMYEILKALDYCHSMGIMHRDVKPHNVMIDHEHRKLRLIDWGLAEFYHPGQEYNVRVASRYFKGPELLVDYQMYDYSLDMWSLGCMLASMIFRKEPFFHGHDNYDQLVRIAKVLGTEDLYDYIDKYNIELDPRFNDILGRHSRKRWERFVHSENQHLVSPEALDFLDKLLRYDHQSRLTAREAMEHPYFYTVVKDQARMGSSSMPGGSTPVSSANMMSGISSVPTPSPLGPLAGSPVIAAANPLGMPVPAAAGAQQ", "how_it_was_run": "as §1"}, "[17]": {"biological_target": "CDKL2 (Homo sapiens, UniProt Q92772)", "sequence (Q92772 whole entry)": "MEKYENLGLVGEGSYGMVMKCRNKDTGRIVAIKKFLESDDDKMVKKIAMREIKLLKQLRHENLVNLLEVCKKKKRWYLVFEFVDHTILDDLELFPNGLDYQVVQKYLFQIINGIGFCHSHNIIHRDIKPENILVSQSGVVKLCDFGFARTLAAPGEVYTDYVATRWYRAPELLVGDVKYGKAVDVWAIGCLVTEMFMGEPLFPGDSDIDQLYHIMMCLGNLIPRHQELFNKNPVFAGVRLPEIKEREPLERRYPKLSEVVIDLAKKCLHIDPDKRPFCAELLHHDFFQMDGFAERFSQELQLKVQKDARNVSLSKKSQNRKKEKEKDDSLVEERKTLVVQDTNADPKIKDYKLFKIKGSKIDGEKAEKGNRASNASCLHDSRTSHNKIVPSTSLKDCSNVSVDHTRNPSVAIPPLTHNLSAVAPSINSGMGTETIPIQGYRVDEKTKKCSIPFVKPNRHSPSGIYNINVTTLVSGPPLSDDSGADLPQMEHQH", "how_it_was_run": "as §1"}, "[18]": {"biological_target": "IRAK1 (Homo sapiens, UniProt P51617)", "sequence (P51617 whole entry)": "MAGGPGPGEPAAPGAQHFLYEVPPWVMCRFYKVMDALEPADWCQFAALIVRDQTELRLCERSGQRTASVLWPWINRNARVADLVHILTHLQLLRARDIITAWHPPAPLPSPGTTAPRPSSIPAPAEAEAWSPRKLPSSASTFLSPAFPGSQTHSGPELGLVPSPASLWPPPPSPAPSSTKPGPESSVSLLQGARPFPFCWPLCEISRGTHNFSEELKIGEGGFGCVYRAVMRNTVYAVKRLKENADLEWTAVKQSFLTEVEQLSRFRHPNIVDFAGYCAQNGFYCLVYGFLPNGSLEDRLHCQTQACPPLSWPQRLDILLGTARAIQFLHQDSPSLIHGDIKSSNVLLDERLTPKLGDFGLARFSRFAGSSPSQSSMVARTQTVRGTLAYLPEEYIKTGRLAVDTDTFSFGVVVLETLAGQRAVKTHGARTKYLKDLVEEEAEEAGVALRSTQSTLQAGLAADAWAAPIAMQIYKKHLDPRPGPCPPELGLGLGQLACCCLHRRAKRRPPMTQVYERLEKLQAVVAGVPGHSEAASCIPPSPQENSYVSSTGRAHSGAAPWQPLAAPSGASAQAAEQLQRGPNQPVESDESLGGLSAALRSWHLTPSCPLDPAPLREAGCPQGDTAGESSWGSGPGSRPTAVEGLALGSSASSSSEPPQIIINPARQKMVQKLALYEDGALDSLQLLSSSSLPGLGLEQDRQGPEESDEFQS", "how_it_was_run": "as §1"}, "[19]": {"biological_target": "CDKL5 (Homo sapiens, UniProt O76039)", "how_it_was_run": "as §1"}, "[20]": {"biological_target": "PAK2 (Homo sapiens, UniProt Q13177)", "sequence (Q13177 whole entry)": "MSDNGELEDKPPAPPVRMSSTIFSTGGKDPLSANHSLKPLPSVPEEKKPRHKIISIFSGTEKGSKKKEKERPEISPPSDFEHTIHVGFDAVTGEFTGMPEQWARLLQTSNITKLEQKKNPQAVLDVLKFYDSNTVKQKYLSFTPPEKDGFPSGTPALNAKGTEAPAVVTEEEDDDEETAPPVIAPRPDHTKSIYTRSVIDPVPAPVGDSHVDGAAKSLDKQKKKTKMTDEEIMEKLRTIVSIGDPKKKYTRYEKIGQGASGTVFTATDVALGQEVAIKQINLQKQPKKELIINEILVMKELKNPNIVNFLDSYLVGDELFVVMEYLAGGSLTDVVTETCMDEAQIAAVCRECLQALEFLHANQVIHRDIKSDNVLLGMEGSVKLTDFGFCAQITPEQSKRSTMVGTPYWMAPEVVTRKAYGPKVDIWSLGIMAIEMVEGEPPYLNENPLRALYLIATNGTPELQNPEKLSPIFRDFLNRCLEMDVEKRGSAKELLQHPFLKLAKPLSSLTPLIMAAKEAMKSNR", "how_it_was_run": "as §1"}, "[21]": {"biological_target": "MAPKAPK2 (Homo sapiens, UniProt P49137)", "how_it_was_run": "as §1"}, "[22]": {"biological_target": "T2, JNK1 (Homo sapiens, UniProt P45983)", "T2 construct": "gene MAPK8", "how_it_was_run": "as §1"}, "[23]": {"biological_target": "CDK7 (Homo sapiens, UniProt P50613)", "sequence (P50613 whole entry)": "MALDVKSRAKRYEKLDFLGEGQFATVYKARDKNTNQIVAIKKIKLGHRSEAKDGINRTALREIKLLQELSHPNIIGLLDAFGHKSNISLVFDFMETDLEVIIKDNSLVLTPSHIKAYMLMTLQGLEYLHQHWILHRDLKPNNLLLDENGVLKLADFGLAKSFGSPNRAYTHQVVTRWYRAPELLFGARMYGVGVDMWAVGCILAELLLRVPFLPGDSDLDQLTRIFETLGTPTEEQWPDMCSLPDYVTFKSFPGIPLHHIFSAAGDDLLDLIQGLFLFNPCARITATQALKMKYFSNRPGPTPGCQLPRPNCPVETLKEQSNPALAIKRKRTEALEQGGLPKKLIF", "how_it_was_run": "as §1"}, "[24]": {"biological_target": "T3, ABL1(Q252H)-phosphorylated (Homo sapiens, UniProt P00519, Q252H)", "T3 construct": "phosphorylated", "how_it_was_run": "as §1"}, "[25]": {"biological_target": "MTOR (Homo sapiens, UniProt P42345)", "how_it_was_run": "as §1"}}}
{"smiles": "C=CC(=O)Nc1cc(-n2c(=O)ccc3cnc4ccc(-n5cccn5)cc4c32)ccc1C", "note": "[CHMFL-BTK-11]", "values": [{"measurement": "remaining binding at 1 µM", "setting": "[1]", "result": 90, "unit": "%"}, {"measurement": "remaining binding at 1 µM", "setting": "[2]", "result": 100, "unit": "%"}, {"measurement": "remaining binding at 1 µM", "setting": "[3]", "result": 96, "unit": "%"}, {"measurement": "remaining binding at 1 µM", "setting": "[4]", "result": 100, "unit": "%"}, {"measurement": "remaining binding at 1 µM", "setting": "[5]", "result": 100, "unit": "%"}, {"measurement": "remaining binding at 1 µM", "setting": "[6]", "result": 100, "unit": "%"}, {"measurement": "remaining binding at 1 µM", "setting": "[7]", "result": 100, "unit": "%"}, {"measurement": "remaining binding at 1 µM", "setting": "[8]", "result": 52, "unit": "%"}, {"measurement": "remaining binding at 1 µM", "setting": "[9]", "result": 99, "unit": "%"}, {"measurement": "remaining binding at 1 µM", "setting": "[10]", "result": 91, "unit": "%"}, {"measurement": "remaining binding at 1 µM", "setting": "[11]", "result": 99, "unit": "%"}, {"measurement": "remaining binding at 1 µM", "setting": "[12]", "result": 100, "unit": "%"}, {"measurement": "remaining binding at 1 µM", "setting": "[13]", "result": 98, "unit": "%"}, {"measurement": "remaining binding at 1 µM", "setting": "[14]", "result": 89, "unit": "%"}, {"measurement": "remaining binding at 1 µM", "setting": "[15]", "result": 100, "unit": "%"}, {"measurement": "remaining binding at 1 µM", "setting": "[16]", "result": 92, "unit": "%"}, {"measurement": "remaining binding at 1 µM", "setting": "[17]", "result": 81, "unit": "%"}, {"measurement": "remaining binding at 1 µM", "setting": "[18]", "result": 87, "unit": "%"}, {"measurement": "remaining binding at 1 µM", "setting": "[19]", "result": 100, "unit": "%"}, {"measurement": "remaining binding at 1 µM", "setting": "[20]", "result": 99, "unit": "%"}, {"measurement": "remaining binding at 1 µM", "setting": "[21]", "result": 99, "unit": "%"}, {"measurement": "remaining binding at 1 µM", "setting": "[22]", "result": 72, "unit": "%"}, {"measurement": "remaining binding at 1 µM", "setting": "[23]", "result": 89, "unit": "%"}, {"measurement": "remaining binding at 1 µM", "setting": "[24]", "result": 100, "unit": "%"}, {"measurement": "remaining binding at 1 µM", "setting": "[25]", "result": 62, "unit": "%"}]}
